Measurements as given in the NIST ThermoML archive (doi:10.1021/je700176d).
± gives the expanded uncertainty stated by the source.

Conditions: 101.33 kPa, Liquid, transient hot wire

Compound | thermal conductivity (293 K) [W/m/K] | thermal conductivity (303 K) [W/m/K] | thermal conductivity (313 K) [W/m/K] | thermal conductivity (323 K) [W/m/K] | thermal conductivity (333 K) [W/m/K] | thermal conductivity (343 K) [W/m/K] | thermal conductivity (353 K) [W/m/K]
CCn1cc[n+](C)c1.O=S(=O)([N-]S(=O)(=O)C(F)(F)F)C(F)(F)F | 0.13 ± 0.01 | 0.13 ± 0.01 | 0.129 ± 0.01 | 0.129 ± 0.01 | 0.129 ± 0.01 | 0.129 ± 0.01 | 0.128 ± 0.01
CCCCCCCCn1cc[n+](C)c1.O=S(=O)([N-]S(=O)(=O)C(F)(F)F)C(F)(F)F | 0.128 ± 0.01 | 0.128 ± 0.01 | 0.128 ± 0.01 | 0.126 ± 0.01 | 0.126 ± 0.01 | 0.125 ± 0.01 | 0.126 ± 0.01
CCCC[N+]1(C)CCCC1.O=S(=O)([N-]S(=O)(=O)C(F)(F)F)C(F)(F)F | 0.125 ± 0.01 | 0.125 ± 0.01 | 0.124 ± 0.01 | 0.124 ± 0.01 | – | – | –
CCCCCCCCCCCCCC[P+](CCCCCC)(CCCCCC)CCCCCC.O=S(=O)([N-]S(=O)(=O)C(F)(F)F)C(F)(F)F | 0.144 ± 0.01 | 0.143 ± 0.01 | 0.142 ± 0.01 | 0.141 ± 0.01 | 0.141 ± 0.01 | 0.14 ± 0.01 | 0.139 ± 0.01
CCCCCCCCCCn1cc[n+](C)c1.O=S(=O)([N-]S(=O)(=O)C(F)(F)F)C(F)(F)F | 0.132 ± 0.01 | 0.131 ± 0.01 | 0.13 ± 0.01 | 0.129 ± 0.01 | 0.128 ± 0.01 | 0.128 ± 0.01 | 0.128 ± 0.01
CCCC[n+]1ccn(C)c1.O=S(=O)([N-]S(=O)(=O)C(F)(F)F)C(F)(F)F | 0.128 ± 0.01 | 0.127 ± 0.01 | 0.127 ± 0.01 | 0.126 ± 0.01 | 0.125 ± 0.01 | 0.124 ± 0.01 | 0.124 ± 0.01
CCCCn1cc[n+](C)c1.O=S(=O)([O-])C(F)(F)F [1-butyl-3-methylimidazolium trifluoromethanesulfonate] | 0.147 ± 0.01 | 0.146 ± 0.01 | 0.145 ± 0.01 | 0.144 ± 0.01 | 0.144 ± 0.01 | 0.143 ± 0.01 | 0.142 ± 0.01
CCOS(=O)(=O)[O-].CCn1cc[n+](C)c1 [1-ethyl-3-methylimidazolium ethyl sulfate] | 0.182 ± 0.01 | 0.181 ± 0.01 | 0.181 ± 0.01 | 0.179 ± 0.01 | 0.179 ± 0.01 | 0.178 ± 0.01 | 0.177 ± 0.01
CCCC[N+]1(C)CCCC1.FC(F)(F)C(F)(F)[P-](F)(F)(F)(C(F)(F)C(F)(F)F)C(F)(F)C(F)(F)F | 0.107 ± 0.01 | 0.106 ± 0.01 | 0.106 ± 0.01 | 0.105 ± 0.01 | 0.105 ± 0.01 | 0.105 ± 0.01 | 0.105 ± 0.01
CCCCCC[n+]1ccn(C)c1.O=S(=O)([N-]S(=O)(=O)C(F)(F)F)C(F)(F)F | 0.127 ± 0.01 | 0.127 ± 0.01 | 0.127 ± 0.01 | 0.126 ± 0.01 | 0.125 ± 0.01 | 0.125 ± 0.01 | 0.125 ± 0.01
CCCCCCCCCCCCCC[P+](CCCCCC)(CCCCCC)CCCCCC.[Cl-] [trihexyl(tetradecyl)phosphonium chloride] | 0.161 ± 0.01 | 0.16 ± 0.01 | 0.159 ± 0.01 | 0.157 ± 0.01 | 0.157 ± 0.01 | 0.156 ± 0.01 | 0.155 ± 0.01
